The supplement of paper PMC11061612

Legend:
Experiment in all cases: combination Emax (second highest fraction inhibited in the dose matrix, 72 h); higher = more inhibition; extreme values may be limits of the assay
[1] = system: PC-14 (Lung Adenocarcinoma)
Procedure, shortened: (§1)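 Cell lines in DMEM/F12 or RPMI with 10% FBS were plated in 1536-well plates, held 24 hours at 37°C, 5% CO2, then given two-drug dose matrices for 72 hours (DMSO typically 0.2%). Viability was read by CellTiter-Glo 2.0 luminescence and scaled as inhibition from 0 (vehicle wells) to 1 (blank wells). Combination Emax is the second-highest inhibition in the matrix; Bliss excess is observed combination effect minus expected EA + EB − EA·EB, EA and EB being single-agent effects.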

[2] = system: CML-T1 (Chronic Myelogenous Leukemia)
Procedure, shortened: as §1

[3] = system: SNU-175 (Colorectal Carcinoma)
Procedure, shortened: as §1

[4] = system: CHL-1 (Melanoma)
Procedure, shortened: as §1

[5] = system: EB-3 (Burkitt's Lymphoma)
Procedure, shortened: as §1

[6] = system: Becker (Low Grade Glioma)
Procedure, shortened: as §1

[7] = system: PANC-02-03 (Pancreatic Carcinoma)
Procedure, shortened: as §1

[8] = system: AN3-CA (Endometrial Carcinoma)
Procedure, shortened: as §1

[9] = system: NKM-1 (Acute Myeloid Leukemia)
Procedure, shortened: as §1

[10] = system: NCI-H1623 (Lung Adenocarcinoma)
Procedure, shortened: as §1

[11] = system: NCI-H196 (Small Cell Lung Carcinoma)
Procedure, shortened: as §1

[12] = system: RL95-2 (Endometrial Carcinoma)
Procedure, shortened: as §1

[13] = system: KYSE-70 (Esophageal Squamous Cell Carcinoma)
Procedure, shortened: as §1

[14] = system: COLO-684 (Endometrial Carcinoma)
Procedure, shortened: as §1

[15] = system: BALL-1 (B-Lymphoblastic Leukemia)
Procedure, shortened: as §1

[16] = system: RMG-I (Ovarian Carcinoma)
Procedure, shortened: as §1

[17] = system: KYM-1 (Rhabdomyosarcoma)
Procedure, shortened: as §1

[18] = system: NCI-H1563 (Lung Adenocarcinoma)
Procedure, shortened: as §1

[19] = system: HuO-3N1 (Osteosarcoma)
Procedure, shortened: as §1

[20] = system: RERF-LC-KJ (Lung Adenocarcinoma)
Procedure, shortened: as §1

SMILES | combination Emax [1] | combination Emax [2] | combination Emax [3] | combination Emax [4] | combination Emax [5] | combination Emax [6] | combination Emax [7] | combination Emax [8] | combination Emax [9] | combination Emax [10] | combination Emax [11] | combination Emax [12] | combination Emax [13] | combination Emax [14] | combination Emax [15] | combination Emax [16] | combination Emax [17] | combination Emax [18] | combination Emax [19] | combination Emax [20]
COc1nnc2ccc(N3CCC(c4ccc(OCCN5CCN(C)C(=O)[C@H]5C)cc4)CC3)nn12 [AZD5153] + CC1(C)CCC(CN2CCN(c3ccc(C(=O)NS(=O)(=O)c4ccc(NCC5CCOCC5)c([N+](=O)[O-])c4)c(Oc4cnc5[nH]ccc5c4)c3)CC2)=C(c2ccc(Cl)cc2)C1 [Venetoclax] (first compound max 1 µM, 7x7, partner max 1 µM) | 0.419 | 0.443 | 0.665 | 0.531 | 0.806 | 0.334 | 0.582 | 0.2 | 0.978 | 0.419 | 0.32 | 0.426 | 0.409 | 0.528 | 1 | 0.599 | 0.859 | 0.491 | 0.337 | 0.971
COc1cccc(OCCCN)c1-c1cc(Nc2cnc(C#N)cn2)n[nH]1 [Prexasertib] + C=CCn1c(=O)c2cnc(Nc3ccc(N4CCN(C)CC4)cc3)nc2n1-c1cccc(C(C)(C)O)n1 [AZD1775] (first compound max 1 µM, partner max 1 µM) | 0.932 | 0.99 | 0.744 | 0.845 | 0.818 | 0.733 | 0.662 | 0.954 | 0.956 | 0.841 | 0.723 | 0.957 | 0.777 | 0.856 | 0.997 | 0.727 | 0.966 | 0.482 | 0.756 | 0.435
COc1cccc(OCCCN)c1-c1cc(Nc2cnc(C#N)cn2)n[nH]1 [Prexasertib] + CN(C)CCCOc1ccc(-c2ccc3ncc4c(c3c2)n(C2CCOCC2)c(=O)n4C)cn1 [AZD0156] (first compound max 1 µM, 7x7, partner max 1 µM) | 0.85 | 0.987 | 0.632 | 0.814 | 0.838 | 0.711 | 0.609 | 0.81 | 0.956 | 0.804 | 0.606 | 0.888 | 0.618 | 0.854 | 0.999 | 0.698 | 0.952 | 0.352 | 0.48 | 0.349
NC1(C(=O)N[C@@H](CCO)c2ccc(Cl)cc2)CCN(c2ncnc3[nH]ccc23)CC1 [Capivasertib] + COc1nnc2ccc(N3CCC(c4ccc(OCCN5CCN(C)C(=O)[C@H]5C)cc4)CC3)nn12 [AZD5153] (first compound max 10 µM, 7x7, partner max 1 µM) | 0.638 | 0.703 | 0.649 | 0.708 | 0.752 | 0.593 | 0.602 | 0.75 | 1 | 0.52 | 0.326 | 0.9 | 0.358 | 0.782 | 0.973 | 0.456 | 0.874 | 0.76 | 0.481 | 0.877
COc1cccc(OCCCN)c1-c1cc(Nc2cnc(C#N)cn2)n[nH]1 [Prexasertib] + C[C@@H]1COCCN1C2=NC(=NC(=C2)C3(CC3)[S@](=N)(=O)C)C4=C5C=CNC5=NC=C4 [AZD6738] (first compound max 1 µM, 7x7, partner max 10 µM) | 0.879 | 0.97 | 0.616 | 0.884 | 0.83 | 0.733 | 0.639 | 0.821 | 0.938 | 0.827 | 0.566 | 0.898 | 0.602 | 0.864 | 0.998 | 0.629 | 0.956 | 0.262 | 0.432 | 0.278
CN(CCO)CC[C@H](CSc1ccccc1)Nc1ccc(S(=O)(=O)NC(=O)c2ccc(N3CCC([C@@H](O)c4ccccc4-c4ccc(Cl)cc4)CC3)cc2)cc1S(=O)(=O)C(F)(F)F [AZD4320] + Cn1cnc2c(F)c(Nc3ccc(Br)cc3Cl)c(C(=O)NOCCO)cc21 [Selumetinib] (first compound max 1 µM, 7x7, partner max 3 µM) | 0.333 | 0.996 | 0.865 | 0.389 | 0.393 | 0.259 | 0.55 | 0.693 | 1 | 0.859 | 0.275 | 0.667 | 0.229 | 0.355 | 1 | 0.912 | 0.203 | 0.198 | 0.221 | 0.298
CN(CCO)CC[C@H](CSc1ccccc1)Nc1ccc(S(=O)(=O)NC(=O)c2ccc(N3CCC([C@@H](O)c4ccccc4-c4ccc(Cl)cc4)CC3)cc2)cc1S(=O)(=O)C(F)(F)F [AZD4320] + C=CCn1c(=O)c2cnc(Nc3ccc(N4CCN(C)CC4)cc3)nc2n1-c1cccc(C(C)(C)O)n1 [AZD1775] (first compound max 1 µM, partner max 1 µM) | 0.99 | 1 | 0.717 | 0.703 | 0.681 | 0.261 | 0.585 | 0.468 | 1 | 0.608 | 0.671 | 0.53 | 0.67 | 0.763 | 1 | 0.907 | 0.617 | 0.26 | 0.349 | 0.272
NC1(C(=O)N[C@@H](CCO)c2ccc(Cl)cc2)CCN(c2ncnc3[nH]ccc23)CC1 [Capivasertib] + Cn1cnc2c(F)c(Nc3ccc(Br)cc3Cl)c(C(=O)NOCCO)cc21 [Selumetinib] (first compound max 10 µM, 7x7, partner max 10 µM) | 0.834 | 0.828 | 0.534 | 0.367 | 0.325 | 0.65 | 0.572 | 0.815 | 0.965 | 0.813 | 0.281 | 1 | 0.374 | 0.63 | 0.478 | 0.392 | 0.52 | 0.4 | 0.439 | 0.436
Cc1c2c(nn1C)CSCc1cc(n(C)n1)CSc1cc(c3ccccc3c1)OCCCc1c(C(=O)O)n(C)c3c-2c(Cl)ccc13 [AZD5991] + CC1(C)CCC(CN2CCN(c3ccc(C(=O)NS(=O)(=O)c4ccc(NCC5CCOCC5)c([N+](=O)[O-])c4)c(Oc4cnc5[nH]ccc5c4)c3)CC2)=C(c2ccc(Cl)cc2)C1 [Venetoclax] (first compound max 1 µM, 7x7, partner max 1 µM) | 0.245 | 0.779 | 0.926 | 0.968 | 0.145 | 0.124 | 0.138 | 0.835 | 0.999 | 0.905 | 0.23 | 0.943 | 0.103 | 0.244 | 1 | 0.421 | 0.592 | 0.768 | 0.733 | 0.444
COc1nnc2ccc(N3CCC(c4ccc(OCCN5CCN(C)C(=O)[C@H]5C)cc4)CC3)nn12 [AZD5153] + C[C@@H]1COCCN1C2=NC(=NC(=C2)C3(CC3)[S@](=N)(=O)C)C4=C5C=CNC5=NC=C4 [AZD6738] (first compound max 1 µM, 7x7, partner max 10 µM) | 0.85 | 0.976 | 0.883 | 0.747 | 0.833 | 0.536 | 0.727 | 0.55 | 0.98 | 0.672 | 0.329 | 0.733 | 0.424 | 0.797 | 1 | 0.561 | 0.962 | 0.664 | 0.427 | 0.968
CN(CCO)CC[C@H](CSc1ccccc1)Nc1ccc(S(=O)(=O)NC(=O)c2ccc(N3CCC([C@@H](O)c4ccccc4-c4ccc(Cl)cc4)CC3)cc2)cc1S(=O)(=O)C(F)(F)F [AZD4320] + Cc1cc2ncnn2cc1Nc1ncc2c(n1)n(C1CCOCC1)c(=O)n2C [AZD7648] (first compound max 1 µM, 7x7, partner max 10 µM) | 0.203 | 0.99 | 0.446 | 0.177 | 0.334 | 0.124 | 0.109 | 0.445 | 1 | 0.298 | 0.128 | 0.0598 | 0.132 | 0.197 | 1 | 0.826 | 0.0895 | 0.35 | 0.139 | 0.288
Cc1c2c(nn1C)CSCc1cc(n(C)n1)CSc1cc(c3ccccc3c1)OCCCc1c(C(=O)O)n(C)c3c-2c(Cl)ccc13 [AZD5991] + CCN(CCO)CCCOc1ccc2c(Nc3cc(CC(=O)Nc4cccc(F)c4)[nH]n3)ncnc2c1 [AZD2811] (first compound max 1 µM, 7x7, partner max 1 µM) | 0.371 | 0.389 | 0.96 | 0.933 | 0.35 | 0.147 | 0.269 | 0.584 | 0.969 | 0.899 | 0.222 | 1 | 0.315 | 0.381 | 0.875 | 0.303 | 0.62 | 0.517 | 0.875 | 0.584
